Assays:
[1] = ITC of phospholipid liposomes with calcium; assay type: binding; conditions: liposome with POPC 80:20, 25° C.
Method: (§1) Particularly, a protein solution was prepared by suspending a protein in 10 mM HEPES (pH 7.0). Phospholipid related ligand was titrated in the protein solution at 25° C. by using iTC200 micro calorimetry system (MicroCal Inc., USA), and the generated graph was corrected using Origin software (MicroCal Inc., USA). At this time, the phospholipid related ligand was prepared in the form of liposome by mixing POPC (1-palmitoyl-2-oleoyl-sn-glycero-3-phosphocholin) chloroform solution and POPS (1-palmitoyl-2-oleoyl-sn-glycero-3-phosphoserine), PI(3,4)P2 (1,2-dipalmotoyl-sn-glycero-3-phosphatidylinositol-3,4-[…]), PI(4,5)P2 (1,2-dipalmotoyl-sn-glycero-3-phosphatidylinositol-4,5-trisphosphate) or PI(3,4,5)P3 (1,2-dipalmotoyl-sn-glycero-3-phosphatidylinositol-3,4,5-trisphosphate) at the molar ratio of 80:20. The organic solvent was eliminated. The organic solvent was removed and a single layer lamellar was produced in HEPES (pH 7.0) using phospholipids.

Akt protein [2] = assay: Western blotting of Akt protein phosphorylation in insulin-treated HepG2 cells; assay type: cell-based, human
Method: First, male C57BL/6 mice at 8 weeks were divided into the fasted group wherein the mice were fasted for 16 hours and the refed group wherein the mice were fasted for 16 hours and then fed for 4 hours. Each group was sub-divided into the high fat diet group (HFD) and the normal diet group (chow). The liver cells were extracted from the raised mice by the same manner and under the same conditions as described in Example 1. The extracted liver cells were lysed in a lysis buffer containing phosphatase (Sigma-Aldrich, USA) and protease inhibitor (Sigma-Aldrich, USA). Proteins extracted from 2 to 3 mg of the liver tissue were homogenized by using a tissue homogenizer (TissuLyser, Qiagen, USA) for 1.5 minutes at a frequency of 1/30 sec. The homogenized lysate was centrifuged at 12,000 rpm for 15 minutes and the supernatant was obtained. The amount of the extracted protein was quantified by using a protein assay kit (Bio-Rad Laboratories, USA), and at this time BSA was used as a standard sample. 3 mg of the protein was mixed with 6× loading buffer, followed by electrophoresis using 10% SDS-PAGE gel. The electrophoresed protein was transferred onto a polyvinylidene fluoride (PVDF) membrane by using a transfer buffer at 4° C. with 120 V for 1.5 hours. The PVDF membrane on which the protein was transferred was pretreated with a blocking buffer prepared by mixing 5% skim milk with TBS buffer (TBS-T, pH 7.6) supplemented with Tween 20 for 30 minutes, and the membrane was washed with TBS-T. The washed membrane was added with the antibody against Akt (Cell Signaling Technology, USA), Akt(T308) (Cell Signaling Technology, USA), Akt(S473) (Cell Signaling Technology, USA), FOXO3A (Cell Signaling Technology, USA), FOXO3A(S253) (Cell Signaling Technology, USA), GSK-3β (Cell Signaling Technology, USA) or GSK-3β(S9) (Cell Signaling Technology, USA) protein as a primary antibody, followed by reaction at 4° C. for 12 hours. At this time, the antibody against actin (Santa Cruz Biotechnology, USA) protein was used for the control group. Upon completion of the reaction, the secondary antibody corresponding to the primary antibody was added thereto, followed by reaction at room temperature for 30 minutes. The PVDF membrane was washed with TBS-T buffer three times. The washed PVDF membrane was added with ECL solution (Thermo Scientific, USA), followed by image observation.
To investigate the changes in insulin sensitivity when insulin was added to the fatty liver cell model constructed in vitro, the phosphorylations of those proteins that were involved in insulin signaling mechanism were examined. PA was added to the human HepG2 cells prepared in Example 3, followed by reaction for 24 hours. […]

Akt protein [3] = assay: Western blot of Akt activation in HepG2 cells co-transfected with PI3K under increased calcium; assay type: cell-based, human
CHO cells = assay: Migration of mCherry-tagged PH or C2 domain to the cell membrane, fluorescence microscopy; assay type: cell-based
Description: First, the PH domain of Akt1 protein or the C2 domain of PKCβ protein was obtained by PCR using the primers consisting of the nucleotide sequences represented by […]. The obtained PCR product was cloned in pmCherry-C1 vector (Takara Clontech, Japan) by the conventional cloning method. CHO cells were transfected with the prepared vector by using lipofectamine according to the manufacturer's protocol. The transfected cells were selected by using blastidicin. Then, mCherry positive cells were confirmed by flow cytometry.
PMA at the concentration of 100 nM, ionomycin at the concentration of 10 μM or insulin at the concentration of 100 nM was added to the cells expressing the PH domain of Akt1 protein or the C2 domain of PKCβ protein and the location of the expressed protein was confirmed by fluorescence microscopy.

[4] = ITC of C2 domain with PI(3,4,5)P3 liposomes; assay type: binding
Method: as §1
In the meantime, in ITC, the phospholipid related ligand was prepared in the form of liposome by mixing POPC chloroform solution and PI(3,4,5)P3 at the molar ratio of 80:20. Then, ITC was performed by the same manner under the same conditions as described in Example <7-3> except that the PKCβ protein C2 domain or D187/193A, the C2 domain mutant, was used.

[5] = Protein-lipid binding assay (PIP-strips)
Method: (§2) Particularly, the analysis was performed by using membrane-immobilized lipid strips (PIP-strips, Echelon Biosciences Inc., USA). At this time, the membrane was loaded with LPA (lysophosphatidic acid), LPC (lysophosphatidylcholine), PI (phosphatidylinositol), PE (phosphatidylethanolamine), PC (phosphatidylcholine), S1P (sphingosine 1-phosphate), PA (phosphatidic acid) or PS (phosphatidylserine) at the concentration of 100 pmol, to which calcium was added at the concentration of 0, 0.05 or 0.1 mM. Each membrane was pre-treated with a blocking buffer [fatty acid free 3% BSA (bovine serum albumin), 0.1% (v/v) Tween 20 and TBS (Tris-buffered saline), pH 7.5] at room temperature for 30 minutes. The PH domain of Atk protein purified in Example <7-1> was suspended in a blocking buffer at the concentration of 3.5 mg/Ml. The suspended protein was reacted with the membrane-immobilized lipid strip at room temperature for 30 minutes. The protein bound with lipid was identified by using the PH domain antibody.
To investigate whether or not the binding of the PKCβ protein C2 domain purified in Example <8-1> to PI(4,5)P2 or PI(3,4,5)P3 was inhibited by calcium, protein-lipid binding assay and ITC were performed. First, protein-lipid binding assay was performed by the same manner under the same conditions as described in Example <7-2> except that the PKCβ protein C2 domain was used instead of the Akt protein PH domain. At this time, D187/193A and D246/248A mutant proteins of the C2 domain were used as the control group, and the results are shown in FIG. 8.

[6] = Protein-lipid binding assay (PIP-strips); remark: listed apart in the source
Method: as §2

[7] = HepG2, PMA 0, 10, 50 or 100 nM or ionomycin 0, 1, 5, 10 or 20 μM, 100 nM insulin, dose-dependent
[8] = intracellular calcium concentration increased (PMA 100 nM, ionomycin 10 μM)
[9] = membrane-immobilized lipid strips

Molecule: CCCCCCCCCCCCCCCC(=O)OCC(COP(=O)(O)OC1C(O)C(OP(=O)(O)O)C(OP(=O)(O)O)C(OP(=O)(O)O)C1O)OC(=O)CCCCCCCCCCCCCCC (stereo not shown) [PI(3,4,5)P3, 1,2-dipalmotoyl-sn-glycero-3-phosphatidylinositol-3,4,5-trisphosphate]
- binding to calcium [1]: high affinity

Molecule: CCCCCCCCCCCCCCCC(=O)OCC(COP(=O)(O)OC1C(O)C(O)C(OP(=O)(O)O)C(OP(=O)(O)O)C1O)OC(=O)CCCCCCCCCCCCCCC (stereo not shown) [PI(4,5)P2, 1,2-dipalmotoyl-sn-glycero-3-phosphatidylinositol-4,5-trisphosphate]
- binding to calcium [1]: high affinity

Molecule: CCCCCCCCCCCCCCCC(=O)OCC(COP(=O)(O)OC1C(O)C(O)C(OP(=O)(O)O)C(OP(=O)(O)O)C1O)OC(=O)CCCCCCCCCCCCCCC (stereo not shown) [PI(3,4)P2, 1,2-dipalmotoyl-sn-glycero-3-phosphatidylinositol-3,4-triphosphate]
- binding to calcium [1]: high affinity

Molecule: C[C@H](CCC(=O)O)C[C@H](C)C[C@H](C)C(=O)/C=C(\O)[C@H](C)C[C@H](C)C/C=C/[C@@H](C)[C@@H](O)[C@@H](C)[C@@H](O)C[C@@H]1CC[C@@](C)([C@H]2CC[C@@](C)([C@@H](C)O)O2)O1 [ionomycin]
- phosphorylation of Akt protein (Akt protein [2]; [7]): significantly inhibited

Molecule: COc1ccc(CCN(C)CCCC(C#N)(c2ccc(OC)c(OC)c2)C(C)C)cc1OC (stereo not shown) [verapamil]
- phosphorylation of Akt protein (Akt protein [2]; HepG2, verapamil 0, 5, 10 or 100 nM, effect of insulin addition): increased

Molecule: wild type Akt protein: control: wild type Akt protein containing the PH domain, SEQ. ID. NO: 16
- Akt protein activation by PI3K (Akt protein [3]): activated
- Akt protein activation as calcium concentration increases (Akt protein [3]; PMA 0, 10, 50 or 100 nM, ionomycin 20 μM, 1 hour): inhibited

Molecule: CCCCCCCCCCCCCC(=O)O[C@@H]1[C@@H](C)[C@@]2(O)[C@@H](C=C(CO)C[C@]3(O)C(=O)C(C)=C[C@@H]23)[C@@H]2C(C)(C)[C@]12OC(C)=O [PMA, phorbol myristate acetate]
- phosphorylation of Akt protein (Akt protein [2]; [7]): significantly inhibited

Molecule: C2 domain of PKCβ protein: purified C2 domain of PKCβ protein, SEQ. ID. NO: 14
- migration to the cell membrane (CHO cells; insulin 100 nM added): did not migrate to the cell membrane
- migration to the cell membrane (CHO cells; [8]): migrated as the intracellular calcium concentration was increased
- binding to PI(3,4,5)P3 by ITC ([4]; absence of calcium): not induced
- binding to PI(3,4,5)P3 by ITC ([4]; increased calcium concentration, POPC:PI(3,4,5)P3 80:20 liposome): strongly bound
- effect of calcium on binding to PI(3,4,5)P3 ([5]; calcium 0, 0.05 or 0.1 mM): promoted
- effect of calcium on binding to PI(4,5)P2 ([5]; calcium 0, 0.05 or 0.1 mM): promoted
- binding to PI(3,4,5)P3 [5, 9]: strongly bound
- binding to PI(4,5)P2 [5, 9]: strongly bound

B1: PH domain of Akt protein: purified PH domain of Akt1 protein, SEQ. ID. NO: 13 (protein)
chain: MSDVAIVKEGWLHKRGEYIKTWRPRYFLLKNDGTFIGYKERPQDVDQREAPLNNFSVAQCQLMKTERPRPNTFIIRCLQWTTVIERTFHVETPEEREEWTTAIQTVADGLKKQEEEEMDFRSGSPSDNSGAEEMEVSLAKPKHR
modifications: artificial_PH domain of Akt protein
- migration to the cell membrane (CHO cells; insulin 100 nM added): migrated to the cell membrane
- migration to the cell membrane (CHO cells; [8]): not observed
- effect of calcium on binding to PI(3,4,5)P3 ([5]; calcium 0, 0.05 or 0.1 mM): inhibited as calcium concentration was increased
- binding to PI(3,4,5)P3 [5, 9]: bound
- effect of calcium on binding to PI(3,4)P2 ([6]; calcium 0, 0.05 or 0.1 mM): inhibited as calcium concentration was increased
- binding to PI(3,4)P2 [6, 9]: bound

Source: patent publication US20190153051A1, “FUSION PROTEIN OF C2 DOMAIN AND AKT KINASE DOMAIN FRAGMENT AND USE THEREOF” (Gachon University of Industry-Academic Cooperation …, priority 2017, published 2019)
